Assay results as given in US20140315876A1, “BETA-LACTAMASE INHIBITORS” (priority 2013, published 2014).
Counter-ions that a name gives are not always drawn.

Columns and labels:
[1] = tested on: bacterial strains that express the class D cephalosporinase OXA-15; test: Synergy MIC / standard BLI potentiation MIC assay, strains expressing OXA-15; type: cell-based, E. coli; conditions: in the presence of a β-lactam; comparator Avibactam (comparator compound CCC)
Procedure, shortened: (§1)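 Broth microdilution in CAMHB per CLSI, ~10^5 CFU/mL, 18-20 h at 37° C; MIC is lowest concentration with no visible turbidity. Potentiation: β-lactam 128-0.13 μg/mL with BLI fixed at 4 μg/mL. Synergy: BLI serially diluted with β-lactam fixed. Engineered E. coli kept on 25 μg/mL tetracycline.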

[2] = tested on: bacterial strains that express KPC β-lactamases; test: Synergy MIC / standard BLI potentiation MIC assay, strains expressing KPC β-lactamases; type: cell-based; conditions: more active for at least one KPC strain and/or better spectrum of activity than Avibactam; in the presence of a β-lactam
Procedure, shortened: as §1

| Structure (SMILES) | activity against bacterial strains that express the class D cephalosporinase OXA-15, compared with Avibactam [1] | activity and/or spectrum of activity against bacterial strains that express KPC β-lactamases, compared with Avibactam [2] |
| --- | --- | --- |
| N[C@H]1C[C@H](c2nnc([C@@H]3CC[C@@H]4CN3C(=O)N4OS(=O)(=O)O)s2)C1 [Compound 783, (2S,5R)-2-(5-((1r,3S)-3-aminocyclobutyl)-1,3,4-thiadiazol-2-yl)-7-oxo-1,6-diazabicyclo[3.2.1]octan-6-yl hydrogen sulfate] | more active than Avibactam | more active than Avibactam |
| N=C(N)N[C@H]1C[C@@H](c2nnc([C@@H]3CC[C@@H]4CN3C(=O)N4OS(=O)(=O)O)s2)C1 [Compound 784, (2S,5R)-2-(5-((1s,3R)-3-guanidinocyclobutyl)-1,3,4-thiadiazol-2-yl)-7-oxo-1,6-diazabicyclo[3.2.1]octan-6-yl hydrogen sulfate] | more active than Avibactam | more active than Avibactam |
| N=C(N)NCCc1nnc([C@@H]2CC[C@@H]3CN2C(=O)N3OS(=O)(=O)O)s1 [Compound 794, (2S,5R)-2-(5-(2-guanidinoethyl)-1,3,4-thiadiazol-2-yl)-7-oxo-1,6-diazabicyclo[3.2.1]octan-6-yl hydrogen sulfate] | more active than Avibactam | more active than Avibactam |
| N[C@H]1C[C@@H](c2nnc([C@@H]3CC[C@@H]4CN3C(=O)N4OS(=O)(=O)O)s2)C1 [Compound 795, (2S,5R)-2-(5-((1s,3R)-3-aminocyclobutyl)-1,3,4-thiadiazol-2-yl)-7-oxo-1,6-diazabicyclo[3.2.1]octan-6-yl hydrogen sulfate] | more active than Avibactam | more active than Avibactam |
